Assay results: ChEMBL document CHEMBL1137303, “Progressive docking: a hybrid QSAR/docking approach for accelerating in silico high throughput screening” (J Med Chem, 2006)

Experiments:
[1] = molecular target: T1, Sex hormone-binding globulin (Homo sapiens) (UniProt P04278); test: Displacement of [3H]DHT from human SHBG relative to testosterone
T1 sequence (whole entry): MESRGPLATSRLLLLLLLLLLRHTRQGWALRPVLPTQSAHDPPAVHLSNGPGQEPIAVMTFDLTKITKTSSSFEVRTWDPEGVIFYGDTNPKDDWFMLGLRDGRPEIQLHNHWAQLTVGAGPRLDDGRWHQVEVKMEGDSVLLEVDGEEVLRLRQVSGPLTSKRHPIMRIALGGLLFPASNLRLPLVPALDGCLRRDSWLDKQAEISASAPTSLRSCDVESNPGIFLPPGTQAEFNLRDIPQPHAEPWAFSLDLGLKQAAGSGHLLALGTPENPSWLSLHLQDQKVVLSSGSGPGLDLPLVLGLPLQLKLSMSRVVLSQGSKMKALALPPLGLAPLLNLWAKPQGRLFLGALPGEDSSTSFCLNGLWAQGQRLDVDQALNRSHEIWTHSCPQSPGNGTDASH

[2] = molecular target: T2, Sex hormone-binding globulin (Homo sapiens, UniProt P04278); test: Displacement of [3H]DHT from human SHBG
T2 sequence (P04278 whole entry): T1 sequence (whole entry)

| SMILES | relative binding affinity (RBA) [1] | IC50 [2] |
| --- | --- | --- |
| CCC(c1ccc(O)c(O)c1)C(CC)c1ccc(O)c(F)c1 (stereo not given) | 714 | 10.3 µM |
| CC12CCNC(=O)C=C1CCC1C2CCC2(C)C(O)CCC12 (stereo not given) | 66 | 0.95 µM |
| C[C@]12CC[C@H]3[C@@H](CCC4=CC(=O)CC[C@@]43C)[C@@H]1CC[C@@H]2O [TESTOSTERONE] |  | 0.014 µM |
| Cc1cc(Cc2cc(C)c(O)c(CO)c2)cc(CO)c1O | 3330 | 48.2 µM |
| C[C@]12CC[C@@H]3c4ccc(O)cc4CC[C@H]3[C@@H]1CC[C@@H]2O | 3.5 |  |
| CCCC1c2ccc(O)cc2CC1c1ccc(O)cc1 (stereo not given) | 768 | 11.1 µM |
